{
  "source": "patent US7427591B2",
  "about": "“Suppression of immune response via inhibition of cathepsin S” (Massachusetts Institute of Technology, priority 1996, dated 2008)",
  "key": {"[1]": {"test_system": "Ii processing in HOM2 cells", "conditions": "leupeptin; Neefjes and Ploegh 1992; cited from earlier work"}, "[2]": {"test_system": "multiple sclerosis", "experiment": "Treating multiple sclerosis in a human", "conditions": "intravenous injection once a day, 500 mg/70 kg body weight"}, "[3]": {"test_system": "Ii processing in HOM2 cells", "experiment": "35S pulse/chase of HOM2 cells, Tu36 immunoprecipitation, SDS-PAGE: Ii processing and SDS-stable class II peptide complexes", "format": "cell-based, human", "conditions": "E64D", "excerpt": "Lysates were precleared with protein A-agarose.\nSamples were eluted with SDS-PAGE sample buffer."}, "[4]": {"target": "cathepsin D (Homo sapiens, UniProt P07339)", "sequence (P07339 65-412, species assumed)": "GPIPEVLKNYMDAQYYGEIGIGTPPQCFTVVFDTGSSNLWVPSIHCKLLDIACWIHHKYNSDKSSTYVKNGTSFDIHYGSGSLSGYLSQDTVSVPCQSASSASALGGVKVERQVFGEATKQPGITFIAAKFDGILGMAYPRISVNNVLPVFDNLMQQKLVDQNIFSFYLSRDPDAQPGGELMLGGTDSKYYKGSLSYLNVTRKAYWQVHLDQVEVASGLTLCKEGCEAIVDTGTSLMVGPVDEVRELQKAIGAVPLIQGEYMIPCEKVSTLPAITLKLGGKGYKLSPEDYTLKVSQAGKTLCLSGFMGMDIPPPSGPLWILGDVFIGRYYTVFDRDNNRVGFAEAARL", "conditions": "Alteri et al. 1993; cited from earlier work"}, "[5]": {"target": "T1, human cathepsin H (Homo sapiens, UniProt P09668)", "T1 construct": "purchased Calbiochem-Novabiochem Corp., San Diego, Calif", "T1 sequence (P09668 98-335)": "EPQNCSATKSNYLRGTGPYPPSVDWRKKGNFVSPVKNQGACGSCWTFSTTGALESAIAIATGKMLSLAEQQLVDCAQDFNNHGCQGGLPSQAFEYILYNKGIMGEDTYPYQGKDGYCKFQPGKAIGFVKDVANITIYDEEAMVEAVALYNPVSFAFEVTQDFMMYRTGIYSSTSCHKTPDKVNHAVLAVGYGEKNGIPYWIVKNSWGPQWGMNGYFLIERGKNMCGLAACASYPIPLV", "experiment": "Inhibition of purified human cathepsin H", "format": "biochemical", "conditions": "purified enzyme", "excerpt": "Purified human cathepsin H (obtained from Calbiochem-Novabiochem Corp., San Diego, Calif.) was not inhibited with LHVS nor did it display any proteolytic activity against immunoprecipitated αβIi, implying that cathepsin H is not an essential protease for Ii degradation."}, "[6]": {"target": "cathepsin S (Homo sapiens, UniProt P25774)", "sequence (P25774 115-331)": "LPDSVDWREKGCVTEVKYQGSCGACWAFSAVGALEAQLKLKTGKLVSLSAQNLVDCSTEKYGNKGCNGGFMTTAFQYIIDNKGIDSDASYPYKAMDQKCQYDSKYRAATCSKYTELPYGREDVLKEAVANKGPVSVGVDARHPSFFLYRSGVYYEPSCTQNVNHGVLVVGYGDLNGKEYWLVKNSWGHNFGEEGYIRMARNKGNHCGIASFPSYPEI", "experiment": "Active site labeling of cysteine proteases with Cbz-[125I]-Tyr-Ala-CN2 in HOM2 cells: cathepsin S", "format": "cell-based"}, "[7]": {"target": "cathepsin B (Homo sapiens, UniProt P07858)", "experiment": "Active site labeling of cysteine proteases with Cbz-[125I]-Tyr-Ala-CN2 in HOM2 cells: cathepsin B", "format": "cell-based", "excerpt": "SIDS, 1% Triton X-100 on ice."}, "[8]": {"test_system": "pemphigus vulgaris", "experiment": "Treating pemphigus vulgaris in a human", "format": "in vivo", "conditions": "topical ointment 50 mg/gm, daily", "description": "The dose is 50 mg/gm of ointment and is applied daily to the affected area."}},
  "data": [
    {"molecule": "CC(=O)N[C@@H](CC(C)C)C(=O)N[C@@H](CC(C)C)C(=O)N[C@H](C=O)CCCNC(=N)N", "note": "[leupeptin]", "values": [
      {"measurement": "SDS-stable complexes (peptide-loaded αβ-dimers)", "setting": "[1]", "value": "decrease"}
    ]},
    {"molecule": "Leu-Arg-Met-vinylsulfone", "values": [
      {"measurement": "effect on multiple sclerosis", "setting": "[2]", "value": "alleviates the effects of multiple sclerosis"}
    ]},
    {"molecule": "CCOC(=O)[C@H]1O[C@@H]1C(=O)N[C@@H](CC(C)C)C(=O)NCCC(C)C", "note": "(relative stereo) [E64D]", "values": [
      {"measurement": "SDS-stable dimer formation", "setting": "[3]", "value": "decrease in SDS-stable dimer formation"}
    ]},
    {"molecule": "CC(C)[C@H](NC(=O)[C@H](Cc1ccccc1)C[C@H](O)[C@H](Cc1ccccc1)NC(=O)OC(C)(C)C)C(=O)N[C@@H](Cc1ccccc1)C(=O)N1CCOCC1", "note": "[CGP 53437]", "values": [
      {"measurement": "inhibits cathepsin D (potency range)", "setting": "[4]", "value": "nanomolar range"}
    ]},
    {"molecule": "CC(C)C[C@H](NC(=O)N1CCOCC1)C(=O)N[C@H](/C=C/S(=O)(=O)c1ccccc1)CCc1ccccc1", "note": "[LHVS, morpholinurea-leucine-homophenylalanine-vinylsulfone phenyl]", "values": [
      {"measurement": "inhibition of purified human cathepsin H", "setting": "[5]", "value": "not inhibited"},
      {"measurement": "concentrations that specifically inhibit cathepsin S, leaving other cysteine proteases functionally active", "setting": "[6]", "value": "1 to 5", "unit": "nM"},
      {"measurement": "labeling of cathepsin S with Cbz-[125I]-Tyr-Ala-CN2", "setting": "[6]; LHVS 1 nM, 1 hour preincubation at 37° C.", "value": "effectively inhibited"},
      {"measurement": "labeling of cathepsin B with Cbz-[125I]-Tyr-Ala-CN2", "setting": "[7]; LHVS 1 nM", "value": "but not cathepsin B"},
      {"measurement": "labeling of cathepsin B with Cbz-[125I]-Tyr-Ala-CN2", "setting": "[7]; LHVS 5 nM", "value": "decreased, although some activity remained"}
    ]},
    {"molecule": "N-(carboxybenzyl)-Arg-Met-vinylsulfone", "values": [
      {"measurement": "effect on pemphigus vulgaris", "setting": "[8]", "value": "alleviates the effects of pemphigus vulgaris"}
    ]}
  ]
}
